Paper PMC6223132 (Journal of controlled release : official journal of the …, 2018)
In brackets after ≈: the same amount, converted by molar mass.

What was measured:
[1] = system: Francisella tularensis; conditions: cited from earlier work
[2] = In vivo pharmacokinetics and biodistribution of drugamer-released ciprofloxacin; conditions: single dose 20 mg/kg intratracheal, over 2 h
[3] = system: aerosolized F. novicida U112; assay type: in vivo, C57Bl/6 mice; conditions: n=8

SMILES: O=C(O)c1cn(C2CC2)c2cc(N3CCNCC3)c(F)cc2c1=O [free ciprofloxacin, ciprofloxacin]
- MIC [1]: 0.03 µg/mL (≈ 0.0905 µM)
- elimination from the lungs [2]: rapid elimination
- survival rate [3]: 0%
